From patent US20260295038A1, “GLYCOLIPID DERIVATIVE AS MINCLE LIGAND” (priority 2023, published 2026) come the findings set out here.

In this test the target is T1, bovine Mincle (Bos taurus, UniProt E1BHM0).
T1 construct: mouse T-cell hybridoma with FcRgamma), plate assay
T1 sequence (E1BHM0 1-211): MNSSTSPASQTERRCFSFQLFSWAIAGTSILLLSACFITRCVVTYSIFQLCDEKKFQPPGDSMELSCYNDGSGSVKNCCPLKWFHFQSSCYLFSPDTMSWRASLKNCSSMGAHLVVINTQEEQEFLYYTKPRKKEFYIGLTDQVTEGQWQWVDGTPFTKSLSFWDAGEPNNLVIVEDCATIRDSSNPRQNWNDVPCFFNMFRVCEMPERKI
The test can be described thus: Mincle ligand activity, NFAT-GFP reporter cells expressing bovine Mincle (Experimental Example 1). The test is classed as cell-based. Particulars: 0.03 to 3 nmol, FIG. 1 right. The procedure: Similarly, using NFAT-GFP reporter cells expressing bovine Mincle, prepared according to the method described in a literature (Yamasaki, S. et al, Nat Immunol 9, 1179-88(2008)), the ligand activity of HD-276 was evaluated on a 96-well plate. The doses of the test compounds (horizontal axis) were 0.03 to 3 (nmol) from the left to right.

As to `CCCCCCc1ccc(O[C@@H]2OC(C)[C@H](O)[C@H](OC)C2O[C@@H]2OC(C)[C@H](O[C@@H]3OC(COC)[C@@H](O)C(O)[C@@H]3O)[C@H](OC)C2OC)cc1` (stereo in doubt) [HD-276], the Mincle ligand activity entry was “confirmed to have Mincle ligand activity”.
